SMILES strings stand for the structures. Read-outs that look alike come from different tables or passages of the source. Where only a bound is given, the exact number is not on record here.

This note sets out measurements from patent EP4748841A1, “BICYCLO[5,6] IMIDAZOLE PYRIMIDONE DERIVATIVE AND PREPARATION METHOD THEREFOR AND USE THEREOF” (Shujing Biopharma Co., Ltd, priority 2023, dated 2025).

The nature of series [1]: Liver microsome stability experiment (human). The class given is in vitro ADME. To be noted: for CLint scaled at 1 µM: human, liver microsomes, pH 7.4, Human liver microsomes; for half-life at 1 µM: pH 7.4, Human liver microsomes. The procedure:
This experiment aimed to evaluate the phase I metabolic stability of the compounds of the present disclosure in liver microsomes of SD rats, beagle dogs, cynomolgus monkeys, and humans.
• (1) Buffer preparation: 73.21 g of dipotassium hydrogen phosphate trihydrate and 10.78 g of potassium dihydrogen phosphate were dissolved in 4000 mL of ultrapure water. The pH of the solution was adjusted to within 7.40 ± 0.10 using 10% phosphoric acid or 1 M potassium hydroxide, resulting in a final concentration of 100 mM. • (2) Solution preparation and dilution: Stock solutions of the test compounds at a concentration of 10 mM were prepared in dimethyl sulfoxide (DMSO) and stored at 4 °C, and they were diluted into 100 µM working solutions with pure acetonitrile when used. A stock solution of the control compound testosterone at a concentration of 10 mM was prepared in DMSO and stored at -20 °C, and it was diluted into a 400 µM working solution with pure acetonitrile when used. • (3) Termination solution preparation: The termination solution was an acetonitrile solution containing an internal standard (terfenadine). The prepared termination solution was stored in a refrigerator at 2-8 °C. • (4) Liver microsome solution preparation: Liver microsomes from various species (SD rat, beagle dog, cynomolgus monkey, and human) were diluted into 20× working solutions using 100 mM potassium phosphate buffer. The final concentration of the liver microsomes in the reaction system was 0.5 mg/mL. • (5) Reduced nicotinamide adenine dinucleotide phosphate (NADPH) regeneration system preparation: Appropriate amounts of nicotinamide adenine dinucleotide phosphate (NADP), glucose-6-phosphate (G6P), magnesium chloride (MgCl2), and glucose-6-phosphate dehydrogenase (G6PDH) were weighed to prepare stock solutions at concentrations of 65.33 mM, 330 mM, 300 mM, and 250 Units/mL, respectively. The four stock solutions described above were each added to an appropriate amount of buffer, and the mixture was mixed well by gently inverting up and down. The final concentrations of NADP, G6P, MgCl2, and G6PDH in the NADPH regeneration system were 2.65 mM, 10.2 mM, 6.12 mM, and 2.45 Units/mL, respectively. • (6) Incubation process: The incubation was completed in 96-well plates. Several incubation plates were prepared and named T0, T5, T10, T20, T40, T60, and NCF60, respectively. The first 6 plates corresponded to reaction time points of 0 min, 5 min, 10 min, 20 min, 40 min, and 60 min, respectively. The NCF60 plate was incubated for 60 min with potassium phosphate buffer replacing the NADPH regeneration system solution. Samples under all conditions were prepared in triplicate.
2 µL of the test compound or control compound and 100 µL of microsome working solution (containing 1 mg/mL liver microsome protein) were added to each of the T0, T5, T10, T20, T40, T60, and NCF60 plates, and only the microsome working solution was added to the Blank 60 plate. The plates described above were then pre-incubated in a 37 °C water bath for about 10 min.
After the pre-incubation was completed, 98 µL of the NADPH regeneration system working solution was added to each sample well except for the NCF60 plate and the T0 plate to initiate the reaction, and 98 µL of potassium phosphate buffer was added to each well of the NCF60 plate. Therefore, for the sample wells containing the test sample or control substance working solution, the final concentrations of TC and testosterone in the reaction were 1 µM and 4 µM, respectively, the concentration of liver microsomes was 0.5 mg/mL, and the final concentrations of DMSO and acetonitrile in the reaction system were 0.01% (v/v) and 0.99% (v/v), respectively.
After incubation for an appropriate time (e.g., 5 min, 10 min, 20 min, 40 min, and 60 min), 600 µL of a termination solution (an acetonitrile solution containing 100 ng/mL […]) was added to each test compound sample well and control compound sample well to terminate the reaction. […]
For orientation: Liver microsomes are vesicles of endoplasmic reticulum, rich in cytochrome P450 enzymes.

For the next series, the target named is T1, Lp-PLA2 (Homo sapiens, UniProt Q13093).
T1 construct: from tissue; host or cells: pooled (mixed) human plasma
T1 sequence (Q13093 22-441): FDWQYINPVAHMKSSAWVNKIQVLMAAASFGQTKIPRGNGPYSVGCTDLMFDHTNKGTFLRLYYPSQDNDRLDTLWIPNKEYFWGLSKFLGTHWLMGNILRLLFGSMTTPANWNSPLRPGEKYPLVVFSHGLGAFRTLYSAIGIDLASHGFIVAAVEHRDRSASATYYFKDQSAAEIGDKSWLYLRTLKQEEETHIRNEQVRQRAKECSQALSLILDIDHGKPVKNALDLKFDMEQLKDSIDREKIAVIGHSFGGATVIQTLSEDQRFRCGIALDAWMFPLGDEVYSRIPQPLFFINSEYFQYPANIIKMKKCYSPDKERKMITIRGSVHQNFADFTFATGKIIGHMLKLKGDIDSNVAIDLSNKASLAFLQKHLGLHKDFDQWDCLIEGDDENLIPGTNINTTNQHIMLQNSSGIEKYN
The experiment in a line: Inhibitory activity against Lp-PLA2 in human plasma (Thio-PAF assay). The series is classed as biochemical. To be noted: 2-thio-PAF substrate, 30 min pre-incubation. From the text:
The literature reports that 2-Thio-PAF, commercially available from Cayman Chemical, is a substrate for PAF hydrolase (PAF-AH). After its cleavage by PAF-AH, the free thiol released at the sn-2 position can react with 7-diethylamino-3-(4'-maleimidophenyl)-4-methylcoumarin (CPM), resulting in increased fluorescence. Thus, Lp-PLA2 inhibitors can prevent this cleavage, and no increase in fluorescence is observed. In this experiment, the human plasma assay employed the same thioester analog of PAF as described in the recombinant human Lp-PLA2 assay described above.
• (1) The Thio-PAF assay was performed as a quenched 75 µL assay. A compound source plate was prepared by preparing 1:4 (v/v) serial diluents of the compounds in pure DMSO in a 96-well microplate. • (2) 1 µL of each test compound from the compound source plate was transferred into a 96-well microplate containing 40 µL of pre-thawed mixed human plasma by a Rainin multichannel pipette, and the plasma was thawed at room temperature and centrifuged at 2000 rpm for 10 min. The plate was shaken on a microplate shaker for 2 min for uniform mixing. • (3) After 30 min of pre-incubation at room temperature, 10 µL of a substrate solution was added sequentially to the 96-well microplate described above by a Rainin multichannel pipette. The substrate solution contained 2.5 mM 2-thio-PAF (from an ethanol mother liquor), 32 µM CPM (from a DMSO mother liquor), and 3.2 mM N-ethylmaleimide (freshly prepared in DMSO for each experiment) in assay buffer (pH 7.4) consisting of 50 mM HEPES, 150 mM NaCl, and 1 mM CHAPS. After the addition was completed, the plate was immediately shaken for 2 min, and the reaction time for the substrate was 4 min in total. After the reaction was completed, the reaction was quenched with 25 µL of an aqueous solution of 5% trifluoroacetic acid. The plate was centrifuged at 1000 rpm for 1 min. • (4) The FLINT signal (FLINT380/480) was read using a microplate reader. • (5) IC50 data, curve fitting, and QC analyses were performed using GraphPad Prism 8.0 and Excel.

Where [2] appears, read: 0.5 mg/mL, 1 µM, read-out: CL(liver).
Where [3] appears, read: 0.5 mg/mL, 1 µM, read-out: CLint(liver).
The mark [4] stands for this setting: read-out: Clearance rate classification.

The term half-life denotes the time in which the quantity being followed falls by half. Read a high half-life as slow loss. As a reminder, the IC50 is the concentration that gives 50% inhibition. Low values mean greater potency in that assay, high ones weaker potency in that assay. Turning to `O=c1nc(OCc2cc(F)c(Oc3ccnc(C(F)(F)F)c3)c(F)c2)cc2n1C[C@H]1CCCN21` [Comparative Example 1, reference compound], the CLint scaled at 1 µM in series [1] (setting [2]) was 0.414 L/h/kg; in series [1] (setting [3]), 0.618 L/h/kg; in series [1] (setting [4]), 0.534 to 2.9 L/h/kg. This compound also yielded a half-life at 1 µM in series [1] (0.5 mg/mL, 1 µM) of 2.01 h. The IC50 against Lp-PLA2 amounted to 16.4 nM.

Regarding `O=c1nc(OCc2cc(F)c(Oc3ccnc(C(F)(F)F)c3)c(F)c2)cc2n1C[C@H]1CCN21` [Example 34-R], the CLint scaled at 1 µM is under 0.304 L/h/kg in series [1] (setting [2]), under 0.401 L/h/kg in series [1] (setting [3]) and at most 0.534 L/h/kg in series [1] (setting [4]). The same compound returned a half-life at 1 µM in series [1] (0.5 mg/mL, 1 µM) of over 3.11 h. The same compound showed an IC50 against Lp-PLA2 of 3.3 nM.
